# Experimental data as given in patent US20090118286A1, “Heterobicyclic Acrylamides” (Bayer Cropscience AG, priority 2005, published 2009).
# Experiment: log P determination by HPLC (EEC Directive 79/831 Annex V.A8, gradient method)
# Format: physicochemical
# Conditions: for chromatographic logP: HPLC gradient method, acetonitrile/0.1% strength aqueous phosphoric acid or formic acid, preparation examples, read-out: log P
structure (smiles),measurement,value
O=C(/C=C/c1c(-c2ccccc2Cl)nc2sc(-c3ccc(C(F)(F)F)cc3)nn12)NCC(F)(F)C(F)(F)C(F)(F)F [Example 0859],Physical data: logP,5
O=C(/C=C/c1c(-c2ccccc2Cl)nc2sc(-c3ccc(C(F)(F)F)cc3)nn12)Nc1ccc(OC(F)(F)F)cc1 [Example 0856],Physical data: logP,5.47
O=C(O)/C=C/c1c(-c2ccccc2Cl)nc2sc(C(F)(F)Cl)nn12 [VA-24],Physical data (logP),2.93
O=C(O)/C=C/c1c(-c2cccnc2Cl)nc2sc(C(F)(F)F)nn12 [VA118],Physical data (logP),2.1
Cc1cn2c(/C=C/C(=O)NC(C)C(F)(F)F)c(-c3ccccc3Cl)nc2s1 (stereo not shown) [Example 0861],Physical data: logP,2.85
O=C(O)/C=C/c1c(-c2ccc(-c3ccc(Cl)cc3)cc2)nc2sc(C(F)(F)F)nn12 [VA121],Physical data (logP),4.26
"CSC[C@H](C)NC(=O)/C=C/c1c(-c2ccc(Cl)cc2Cl)nc2sc(C(F)(F)F)nn12 [Example 0001, (2E)-3-[6-(2,4-Dichlorophenyl)-2-(trifluoromethyl)imidazo[2,1-b][1,3,4]thiadiazol-5-yl]-N-[(1S)-1-methyl-2-(methylthio)ethyl]acrylamide]",chromatographic logP,3.91
COCc1nn2c(/C=C/C(=O)NC3CCCCC3)c(-c3ccccc3Cl)nc2s1 [Example 0832],Physical data: logP,3.12
Cc1csc2nc(-c3ccccc3Cl)c(/C=C/C(=O)NC3CCC3)n12 [Example 0896],Physical data: logP,2.26
CC(C)C(NC(=O)C=Cc1c(-c2cccnc2Cl)nc2sc(C(F)(F)F)nn12)C(F)(F)F (stereo not shown) [Example 0949],Physical data: logP,3.48
CCC(NC(=O)C=Cc1c(-c2cccc(C(F)(F)F)c2)nc2sc(C(F)(F)F)nn12)C1CCCCC1 (stereo not shown) [Example 0409],Physical data: log P,5.48
Cc1ccccc1-c1nc2sc(C(F)(F)F)nn2c1/C=C/C(=O)N1CCCCC1 [Example 0293],Physical data: log P,3.85
CC(C)C(NC(=O)C=Cc1c(-c2ccccc2Cl)nc2sc(C(F)(F)C(F)(F)F)nn12)C(F)(F)F (stereo not shown) [Example 0962],Physical data: logP,4.62
CC(C)C(NC(=O)C=Cc1c(-c2sccc2Cl)nc2sc(C(F)(F)F)nn12)C(F)(F)F (stereo not shown) [Example 0923],Physical data: logP,4.23
CCN(CC)C(=O)/C=C/c1c(-c2ccc(Cl)cc2)nc2sc(C(F)(F)F)nn12 [Example 0070],Physical data (logP),4.16
COCC(C)NC(=O)/C=C/c1c(-c2cccc(C(F)(F)F)c2)nc2sc(C(F)(F)F)nn12 (stereo not shown) [Example 0382],Physical data: log P,3.68
O=C(/C=C/c1c(-c2ccc(F)cc2Cl)nc2sc(C(F)(F)F)nn12)NC1(C(F)(F)F)CC1 [Example 0913],Physical data: logP,3.71
CCN(CC)C(=O)/C=C/c1c(-c2ccc(F)cc2)nc2sc(C(F)(F)F)nn12 [Example 0363],Physical data: log P,3.72
CC(C)(C)c1nn2c(/C=C/C(=O)NCC(F)(F)C(F)(F)C(F)(F)F)c(-c3ccccc3Cl)nc2s1 [Example 0815],Physical data: logP,4.48
O=C(/C=C/c1c(-c2cccc(Cl)c2)nc2sc(C(F)(F)F)nn12)N1CCCCC1 [Example 0141],Physical data (logP),4.37
CCN(C)C(=O)/C=C/c1c(-c2cccc(C(F)(F)F)c2)nc2sc(C(F)(F)F)nn12 [Example 0430],Physical data: log P,4.05
CCN(CC)C(=O)/C=C/c1c(-c2cccc(Cl)c2)nc2sc(C(F)(F)F)nn12 [Example 0140],Physical data (logP),4.28
CC(C)NC(=O)/C=C/c1c(-c2ccccc2Cl)nc2sc(-c3ccc(C(F)(F)F)cc3)nn12 [Example 0846],Physical data: logP,3.96
Cc1csc2nc(-c3ccccc3Cl)c(/C=C/C(=O)NCC(C)C)n12 [Example 0882],Physical data: logP,2.4
CC(NC(=O)/C=C/c1c(-c2cccc(C(F)(F)F)c2)nc2sc(C(F)(F)F)nn12)C(F)(F)F (stereo not shown) [Example 0388],Physical data: log P,4.27
CC(COc1ccccc1)NC(=O)/C=C/c1c(-c2cccc(Cl)c2)nc2sc(C(F)(F)F)nn12 (stereo not shown) [Example 0113],Physical data (logP),4.56
CCC(C)NC(=O)/C=C/c1c(-c2ccccc2Cl)nc2sc(C(C)(C)C)nn12 (stereo not shown) [Example 0803],Physical data: logP,3.67
CCC(CC)NC(=O)/C=C/c1c(-c2ccc(OC)c(OC)c2)nc2sc(C(F)(F)F)nn12 [Example 0710],Physical data: logP,3.37
CC(NC(=O)/C=C/c1c(-c2ccccc2Cl)nc2sc(-c3ccc(C(F)(F)F)cc3)nn12)C(C)(C)C (stereo not shown) [Example 0848],Physical data: logP,4.83
O=C(O)/C=C/c1c(-c2cccc(C(F)(F)F)c2)nc2sc(C(F)(F)F)nn12 [VA-7],Physical data (logP),3.33
CC(C)NC(=O)/C=C/c1c(-c2ccccc2Cl)nc2sc(Br)cn12 [Example 0908],Physical data: logP,3.82
Cc1csc2nc(-c3ccccc3Cl)c(/C=C/C(=O)NC3CC3)n12 [Example 0895],Physical data: logP,1.94
CC(C)C(C)NC(=O)/C=C/c1c(-c2ccc(F)cc2)nc2sc(C(F)(F)F)nn12 (stereo not shown) [Example 0316],Physical data: log P,3.81
CCC(CC)NC(=O)/C=C/c1c(-c2ccc(F)cc2)nc2sc(C(F)(F)F)nn12 [Example 0357],Physical data: log P,3.81
COc1ccc(-c2nc3sc(C(F)(F)F)nn3c2/C=C/C(=O)NCC2CC2)cc1OC [Example 0660],Physical data: logP,2.95
O=C(O)/C=C/c1c(-c2ccc(F)cc2)nc2sc(C(F)(F)F)nn12 [VA-6],Physical data (logP),2.75
O=C(/C=C/c1c(-c2ccc(F)cc2)nc2sc(C(F)(F)F)nn12)N1CCOCC1 [Example 0365],Physical data: log P,2.91
C=CCN(C)C(=O)/C=C/c1c(-c2ccc(Cl)cc2Cl)nc2sc(C(F)(F)F)nn12 [Example 0570],Physical data: log P,4.0
O=Cc1c(-c2cncc(Br)c2)nc2sc(C(F)(F)F)nn12 [IVA115],Physical data (logP),2.62
COCC(C)NC(=O)/C=C/c1c(-c2ccc(Cl)cc2)nc2sc(C(F)(F)F)nn12 (stereo not shown) [Example 0018],Physical data (logP),4.27
CCN(C)C(=O)/C=C/c1c(-c2ccc(Cl)cc2Cl)nc2sc(C(F)(F)F)nn12 [Example 0569],Physical data: log P,3.82
O=C(O)/C=C/c1c(-c2ccc(-c3ccc(OC(F)(F)F)cc3)cc2)nc2sc(C(F)(F)F)nn12 [VA123],Physical data (logP),4.46
COc1ccc(-c2nc3sc(C(F)(F)F)nn3c2/C=C/C(=O)O)cc1OC [VA-10],Physical data (logP),2.43
COCc1nn2c(/C=C/C(=O)Nc3ccc(C(F)(F)F)cc3)c(-c3ccccc3Cl)nc2s1 [Example 0835],Physical data: logP,3.99
COc1ccc(-c2nc3sc(C(F)(F)F)nn3c2/C=C/C(=O)NC2CC2)cc1OC [Example 0656],Physical data: logP,2.64
Cc1ccccc1-c1nc2sc(C(F)(F)F)nn2c1/C=C/C(=O)NC(C)c1ccccc1 (stereo not shown) [Example 0260],Physical data: log P,3.94
COCc1nn2c(/C=C/C(=O)NCC(C)C)c(-c3ccccc3Cl)nc2s1 [Example 0816],Physical data: logP,2.71
CCN(CC)C(=O)/C=C/c1c(-c2ccccc2Cl)nc2sc(C(F)(F)F)nn12 [Example 0221],Physical data: log P,3.61
O=C(/C=C/c1c(-c2ccc(Cl)cc2)nc2sc(C(F)(F)F)nn12)N1CCOCC1 [Example 0072],Physical data (logP),3.27
O=C(/C=C/c1c(-c2ccc(F)cc2)nc2sc(C(F)(F)F)nn12)NC1CCC1 [Example 0305],Physical data: log P,3.41
CCC(CC)NC(=O)/C=C/c1c(-c2cccc(Cl)c2)nc2sc(C(F)(F)F)nn12 [Example 0134],Physical data (logP),4.27
O=Cc1c(-c2cccnc2Cl)nc2sc(C(F)(F)F)nn12 [IVA116],Physical data (logP),2.14
CCC(CC)NC(=O)/C=C/c1c(-c2cccc(C(F)(F)F)c2)nc2sc(C(F)(F)F)nn12 [Example 0428],Physical data: log P,4.41
"C[C@@H](C[S+](C)[O-])NC(=O)/C=C/c1c(-c2ccc(Cl)cc2Cl)nc2sc(C(F)(F)F)nn12 (stereo partly drawn) [Example 0002, (2E)-3-[6-(2,4-Dichlorophenyl)-2-(trifluoromethyl)imidazo[2,1-b][1,3,4]thiadiazol-5-yl]-N-[(1S)-1-methyl-2-(methylsulphinyl)ethyl]acrylamide]",chromatographic logP,2.48
Cc1ccccc1-c1nc2sc(C(F)(F)F)nn2c1/C=C/C(=O)NC1CCCC1 [Example 0235],Physical data: log P,3.68
COCc1nn2c(/C=C/C(=O)NC3CCC3)c(-c3ccccc3Cl)nc2s1 [Example 0830],Physical data: logP,2.59
COCC(C)NC(=O)/C=C/c1c(-c2ccc(F)cc2)nc2sc(C(F)(F)F)nn12 (stereo not shown) [Example 0311],Physical data: log P,3.07
O=C(/C=C/c1c(-c2ccccc2Cl)nc2sc(C(F)(F)F)nn12)N1CCCCC1 [Example 0222],Physical data: log P,3.76
CC(NC(=O)/C=C/c1c(-c2ccccc2Cl)nc2sc(C(F)(F)F)nn12)c1ccccc1 (racemic) [Example 0189],Physical data (logP),3.81
CC(C)(C)NC(=O)/C=C/c1c(-c2ccccc2F)nc2sc(C(F)(F)F)nn12 [Example 0444],Physical data: log P,3.55
CC(C)NC(=O)/C=C/c1c(-c2nccs2)nc2sc(C(F)(F)C(F)(F)F)nn12 [Example 0985],Physical data: logP,3.27
CC(C)CNC(=O)/C=C/c1c(-c2ccccc2Cl)nc2sc(C(C)(C)C)nn12 [Example 0794],Physical data: logP,3.72
CN(C)C(=O)/C=C/c1c(-c2cccc(C(F)(F)F)c2)nc2sc(C(F)(F)F)nn12 [Example 0429],Physical data: log P,3.68
O=C(O)/C=C/c1c(-c2csc(Cl)n2)nc2sc(C(F)(F)C(F)(F)F)nn12 [VA136],Physical data (logP),3.25
CC(C)(C)c1nn2c(/C=C/C(=O)Nc3ccc(OC(F)(F)F)cc3)c(-c3ccccc3Cl)nc2s1 [Example 0812],Physical data: logP,5.13
CCC(C)NC(=O)/C=C/c1c(-c2ccc(OC)c(OC)c2)nc2sc(C(F)(F)F)nn12 (stereo not shown) [Example 0661],Physical data: logP,3.14
CC(C)(C)NC(=O)/C=C/c1c(-c2ccc(Cl)cc2)nc2sc(C(F)(F)F)nn12 [Example 0009],Physical data (logP),4.23
CC(C)(C)CCNC(=O)/C=C/c1c(-c2ccccc2Cl)nc2sc(C(C)(C)C)nn12 [Example 0805],Physical data: logP,4.4
COCc1nn2c(/C=C/C(=O)NC3CC3)c(-c3ccccc3Cl)nc2s1 [Example 0829],Physical data: logP,2.2
CC(C)(C)c1nn2c(/C=C/C(=O)NC3CC3)c(-c3ccccc3Cl)nc2s1 [Example 0807],Physical data: logP,3.07
